Laboratory results published in article PMC4309560, “Creating Novel Activated Factor XI Inhibitors through Fragment Based Lead Generation and Structure Aided Drug Design” (PLoS ONE, 2015).

Tests used:
[1] = molecular target: Recombinant human trypsin (Homo sapiens, UniProt P07477); assay: biochemical; settings: read-out: Trypsin % inhibition at 99 μM
Method: (§1) Enzymatic assay. […] Selected compounds were also screened against other serine proteases to evaluate their selectivity profiles.
(§2) Once the compounds were synthesized and characterized, enzymatic assays were performed to evaluate the inhibitory activity of the resulting compounds against FXIa and other serine proteases. […] IC50 values for the compounds were determined using equation: Q= V/(1+([I]/IC50)^n) Q denotes the assay readout, V denotes the uninhibited velocity of the enzyme, [I] denotes the inhibitor concentration, n denotes the slope and IC50 is the inhibitor concentration at V/2.
Trypsin. Recombinant human trypsin was from Polymun, Vienna, Austria.

Human plasmin = molecular target: T1, Human plasmin (Homo sapiens, UniProt P00747); assay: Plasmin chromogenic assay; assay type: biochemical; settings: read-out: Plasmin % inhibition at 99 μM
T1 construct: Human plasmin was from Enzyme Research Laboratories, Swansea, UK; purchased Enzyme Research Laboratories, Swansea, UK
T1 sequence (P00747 581-810 limits assumed): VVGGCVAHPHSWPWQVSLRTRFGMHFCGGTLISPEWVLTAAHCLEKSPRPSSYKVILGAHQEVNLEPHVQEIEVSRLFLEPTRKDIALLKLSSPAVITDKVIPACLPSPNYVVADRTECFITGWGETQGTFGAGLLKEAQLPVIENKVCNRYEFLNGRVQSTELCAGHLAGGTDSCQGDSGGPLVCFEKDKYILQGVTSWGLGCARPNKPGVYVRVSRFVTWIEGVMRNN
T1 sequence (P00747 97-580 partner limits assumed): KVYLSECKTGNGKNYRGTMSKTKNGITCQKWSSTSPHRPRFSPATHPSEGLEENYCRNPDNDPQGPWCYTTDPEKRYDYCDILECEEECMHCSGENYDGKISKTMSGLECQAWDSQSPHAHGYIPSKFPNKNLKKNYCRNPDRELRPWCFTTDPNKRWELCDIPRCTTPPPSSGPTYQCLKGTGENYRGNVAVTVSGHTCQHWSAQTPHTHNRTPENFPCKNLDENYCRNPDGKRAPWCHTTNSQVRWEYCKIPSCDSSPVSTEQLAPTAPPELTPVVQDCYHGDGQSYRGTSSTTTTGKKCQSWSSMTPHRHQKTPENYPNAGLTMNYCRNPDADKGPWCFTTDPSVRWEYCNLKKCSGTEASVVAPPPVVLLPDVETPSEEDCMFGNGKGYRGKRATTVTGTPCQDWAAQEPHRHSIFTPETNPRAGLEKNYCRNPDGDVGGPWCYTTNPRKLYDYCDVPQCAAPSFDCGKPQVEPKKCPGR
Method: as §1, §2
[S] denotes the substrate concentration.
Plasmin. Human plasmin was from Enzyme Research Laboratories, Swansea, UK.

FXIa CD = molecular target: T2, FXIa CD (Homo sapiens, UniProt P03951, C500S/K455A/S452A/T493A); assay: FXIa surface plasmon resonance (Biacore) inhibition in solution assay; assay type: binding
T2 construct: purification of the catalytic domain (residues 370–607) was carried out as described by Jin et al; made in house
T2 sequence (P03951 388-625 S452A/K455A/T493A/C500S): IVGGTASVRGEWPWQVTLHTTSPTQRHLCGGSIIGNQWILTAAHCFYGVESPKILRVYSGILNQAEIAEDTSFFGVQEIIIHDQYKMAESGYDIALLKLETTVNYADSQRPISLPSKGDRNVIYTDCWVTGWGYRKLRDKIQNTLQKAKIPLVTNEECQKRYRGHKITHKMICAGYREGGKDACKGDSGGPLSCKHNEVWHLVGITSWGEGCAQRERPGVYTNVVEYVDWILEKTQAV
Text: SPR. […] The SPR data were then used to rank and select compounds for X-ray crystallography experiments. The SPR method was based on an inhibition in solution assay in which compound 4, immobilized on the biosensor surface, served as a probe for the FXIa catalytic site. […] Fig. 4 illustrates the design of compound 4 based on the crystal structure of FXIa in complex with compound 1. Since any ligand that binds to the S1 pocket competes with compound 4 for binding to FXIa CD, it is possible to derive the K D for that ligand [60]. The initial binding rate of the protein to compound 4, K on, was used to determine the percentage of free protein in solution which changed by varying the concentration of the competing ligand. The free protein concentration was plotted against the logarithm of the ligand concentration and a sigmoidal dose–response curve-fit model was applied to determine the K D-value.
The tethered free amine ligand 4 was covalently linked to the dextran layer on the CM5 sensor chip (GE Healthcare/Biacore) using the Amine Coupling Kit (Healthcare/Biacore) and performed according to the manufacturer’s recommendations. Carboxyl groups on the dextran layer were activated by injecting a 1:1 mixture of 0.5 M N-ethyl-N’ (3-dimethylaminopropyl)-carbodiimide and 0.5 M N-hydroxysuccinimide at 10 μL/min for 7 min. The activated carboxyl groups on the control channels were blocked by injecting a 1 M ethanolamine solution for 7 min at 10 μL/min. […] The remaining activated groups were blocked with 1 M ethanolamine. Compounds were tested in a concentration response curve. The compounds were serially diluted 1:3 in DMSO to form a 10-point concentration response curve with 5 mM for the highest concentration. The FXIa CD was added to the plate at a final concentration of 50 nM and the mixture was incubated for 15 min at RT. The plate was then sealed and placed in the Biacore 3000 instrument. Samples were injected at 20 μL/min for 2 min. […] The value used to calculate percent inhibition of binding was the slope of the response measured 8 s after the start of the injection. […]

rat hepatocytes = assay: Rat hepatocyte metabolic stability assay; assay type: in vitro ADME
Method: Rat hepatocyte metabolic stability was determined in accordance with the method described by Jacobson et al.. Cryo preserved hepatocytes at a concentration of 10^6 viable cells/mL were used. After thawing, hepatocytes were incubated for 10 min to warm to 37°C and test compounds, dissolved in acetonitrile, were added to give a final concentration of 1 μM. At 0.5, 5, 15, 30, 45, 60, 80, 100 and 120 min, the incubation system was mixed and 20 μL aliquots were transferred at each time point to wells in a separate plate filled with 80 μL acetonitrile to stop the reaction. The quenching plate was then vortexed followed by centrifugation, and supernatants were analyzed by LC/MS/MS. Peak areas were determined from extracted ion chromatograms, and the in vitro intrinsic clearance (in vitro CLint, in μL/min/10^6 cells) of parent compound was calculated from the slope in the regression analysis of the natural logarithm of parent concentration vs. time curve.

In vivo rat PK = settings: female, Sprague Dawley, plasma, intravenous; rat in vivo; read-out: Rat CL (in vivo clearance)
Method: Two days prior to dosing, female Sprague Dawley rats were prepared by cannulation of the left carotid artery for blood sampling and by cannulation of the right jugular vein for intravenous administration. The catheters were filled with heparin (100 IU/mL), exteriorized at the nape of the neck and sealed. The surgery was performed under isoflurane (Forene®, Abbott) anesthesia. After surgery the rats were housed individually and had free access to food and water. About 16 h prior to dosing the animals were deprived of food, and fasted until 4 h after dosing. The rats had free access to drinking water during the experiment. On the experiment day, the test item formulation was administered orally by gavage or intravenously in the jugular vein. At pre-defined time points, blood samples of about 0.150 mL were withdrawn from the carotid artery up to 24h after dosing. A total of 10 samples were withdrawn. The blood samples were collected in heparinized plastic tubes and centrifuged, within 30 min, for five min at 10 000 g and +4°C. The plasma was transferred to a 96 well plate and stored at -20°C until analysis by LC/MS/MS. The studies were approved by the Göteborg Animal Research Ethical Board.

Structure (SMILES): O=C(N[C@@H](Cc1ccccc1)C(=O)NCc1cc(=O)[nH]c2ccc(Cl)cc12)c1ccc2[nH]c(=O)cc(O)c2c1 [Compound 13, (S)-N-(1-{(6-Chloro-2-oxo-1,2-dihydroquinolin-4-yl)methylamino}-1-oxo-3-phenylpropan-2-yl)-4-hydroxy-2-oxo-1,2-dihydroquinoline-6-carboxamide]
- inhibition at 99 µM [1]: 12%
- inhibition at 99 µM (Human plasmin): 14%
- Kd (FXIa CD): 0.5 nM
- Rat CLint (rat hepatocytes): 22 μL/min/ 1·10^6 cells
- clearance (In vivo rat PK): 130 mL/min/kg
